Results published in patent US8242167B2, “Mannose derivatives for killing tumor cells” (University of Miami, priority 2006, dated 2012).

Key:
SKBR3 cells [1] = assay: Growth inhibitory and cytotoxicity assay in SKBR3 cells under normoxia; assay type: cell-based, human; settings: for cytotoxicity measured by trypan blue exclusion: SKBR3, 72 hrs, normal oxygen conditions; for reversal of 2-DG toxicity by added sugar: SKBR3, 1 mM sugar with increasing 2-DG, trypan blue exclusion
Protocol: Cytotoxicity assay and Rapid DNA Content Analysis. Cells were incubated for 24 hr at 37° C. in 5% CO2 at which time drug treatments began and were continued for 72 hr. At this time, attached cells were trypsinized and combined with their respective culture media followed by centrifugation at 400 g for 5 min. Pellets containing the cells were either resuspended in 1.5 ml of a medium/trypan blue mixture for cytotoxicity assays or propidium iodide/hypotonic citrate staining solution for determining the nuclear DNA content and cell cycle by a Coulter XL flow cytometer. A minimum of 10,000 cells were analyzed to generate a DNA distribution histogram.
(§1) Cytotoxicity assay. Cells were incubated for 24 hr at 37° C. in 5% CO2 at which time drug treatments began and continued for 72 hr. At this time, attached cells were trypsinized and combined with their respective culture media followed by centrifugation at 400 g for 5 min. The pellets were resuspended in 1 ml of Hanks solution and analyzed by Vi-Cell (Beckman Coulter, USA) cell viability analyzer.

1420, pancreatic cancer = assay: Cytotoxicity under normoxia, 1420; assay type: cell-based, human; settings: 1420; 1 mM sugar with increasing 2-DG; trypan blue exclusion
Protocol: (§2) Cell types. The Δ^0 cells were isolated by treating osteosarcoma cell line 143B (wt) with ethidium bromide for prolonged periods, as previously described (9). Because the Δ^0 cells are uridine and pyruvate auxotrophs, they were grown in DMEM (GIBCO, USA) supplemented with 10% fetal calf serum, 50 μg/ml of uridine and 100 mM sodium pyruvate. The SKBR3 cell line was obtained from Dr. Joseph Rosenblatt's laboratory at the University of Miami. The pancreatic cancer cell lines 1420 and 1469, the ovarian cancer cell line SKOV3, the cervical cancer cell line HELA, and the osteosarcoma cell line 143B were purchased from ATCC. The non-small cell lung cancer and small cell lung cancer cell lines were derived from patients by Dr. Niramol Savaraj at the University of Miami. SKBR3 and SKOV3 cells were grown in McCoy's 5A medium; 1420, 1469 and 143B were grown in DMEM (GIBCO, USA); and HELA was grown in MEM (GIBCO, USA). The media was supplemented with 10% fetal bovine serum. All cells were grown under 5% CO2 and 37° C.
as §1

[2] = system: glycoproteins (ConA binding) in SKBR3 cells; assay: HRP-conjugated ConA blot of SKBR3 cell extracts; assay type: cell-based, human; settings: SKBR3, 48 hr, 8 mM sugar analog
Protocol: (§3) Western Blot analysis. Cells were plated at 10^4 cell cm^−2 and grown under drug treatment for the indicated times. At the end of the treatment period, cells were collected and lysed with 1% SDS in 80 mM Tris-HCL (ph 7.4) buffer supplemented with a proteinase inhibitor cocktail. DNA was fragmented by sonication and protein concentrations were measured by microBCA protein assay kit (Pierce, USA). Samples were mixed with 2× Laemmli sample buffer (Bio-Rad, USA) and run on a SDS-polyacrylamide gel. Gels were transferred to nitrocellulose membranes (Amersham, USA) and probed with anti-KDEL (Stressgen, Canada) (for Grp78 and Grp94); polyclonal anti-CHOP/[…] (Santa Cruz, USA), polyclonal anti-erbB2 (DAKO, USA). Following probing, membranes were washed and incubated with an HRP conjugated secondary antibody. Chemiluminesence was detected by exposure to film. Where indicated, membranes were stripped with Stripping Buffer (Pierce, USA) and reprobed with anti-actin (Sigma, USA) primary antibody. To analyze conconavalin A (ConA) binding, the membranes were incubated with 0.2 μg/ml HRP-conjugated ConA, and chemiluminescence was detected as described.

erbB2 = assay: Western blot of erbB2 in SKBR3 cells; assay type: cell-based, human
Protocol: as §3

Grp78 and Grp94 [3] = assay: Western blot of Grp78 and Grp94 (unfolded protein response) in SKBR3 cells under normoxia; assay type: cell-based, human; settings: for expression of chaperones Grp78 and Grp94: SKBR3, normoxia, 24 hrs, 8 mM sugar analog, tunicamycin 1 micro g/ml; for up-regulation of GRP 78 and 94, dose dependence: select tumor cells, normoxic conditions
Protocol: as §3

Grp78 and Grp94 [4] = assay: Western blot of Grp78 and Grp94 in models of hypoxia A, B & C; assay type: cell-based
Protocol: as §3
Three in vitro models of hypoxia. We previously characterized three models of anaerobiosis as follows: Model A are tumor cells treated with 0.05 μg/ml of oligomycin (a mitochondrial inhibitor of ATP synthase); Model B are cells that are deficient in mitochondrial DNA and Model C are cells treated in an hypoxic (0.5% O^2) chamber (Reming Bioinstruments, Redfield, N.Y.).

CHOP/GADD154 = assay: Western blot of CHOP/GADD154 in SKBR3 cells; assay type: cell-based, human; settings: SKBR3, normoxia, 24 hrs; 8 mM sugar analog
Protocol: as §3

tumor cell lines = assay: Toxicity survey of tumor cell lines under normoxic conditions; assay type: cell-based; settings: for tumor cell lines undergoing significant cell death: 6 mM, normal oxygen tension; for toxicity to select tumor cell types: normoxia
Protocol: as §2, §1

fowl plague virus = settings: chick embryo fibroblasts infected with fowl plague virus; cited from earlier work
SKBR3 cells [5] = assay: Lactic acid assay in SKBR3 cells; assay type: cell-based, human; settings: 2 mM, 24 hr, 2-FDG vs. 2-DG
Protocol: Lactic acid assay. Lactic acid was measured by adding 0.025 ml of deproteinated medium, from treated or non-treated cultures, to a reaction mixture containing 0.1 ml of lactic acid dehydrogenase (1000 units/ml), 2 ml of glycine buffer (glycine, 0.6 mol/L, and hydrazine, pH 9.2), and 1.66 mg/ml NAD. Deproteinization occurred by treating 0.5 ml of medium from test cultures with 1 ml of perchloric acid at 8% w/v, vortexing for 30 s, then incubating this mixture at 4° C. for 5 min, and centrifuging at 1500 g for 10 min. The supernatant was centrifuged three times more, and 0.025 ml of a final clear supernatant was used for lactic acid determinations. Formation of NADH was measured with a Beckman DUr 520 UV/vis spectrophotometer at 340 nm, which directly corresponds to lactic acid levels as determined by a lactate standard curve.
Lactic acid assay. Lactic acid was measured by adding 0.025 ml of deproteinated medium, from treated or non-treated cultures, to a reaction mixture containing 0.1 ml of lactic dehydrogenase (1000 units/ml), 2 ml of glycine buffer (glycine, 0.6 mol/L, and hydrazine, pH 9.2), and 1.66 mg/ml NAD. […] Formation of NADH was measured with a Beckman DUr 520 UV/vis spectrophotometer at 340 nm, which directly corresponds to lactic acid levels as determined by a lactate standard curve.

SKBR3 cells [6] = assay: ATP quantification assay in SKBR3 cells; assay type: cell-based, human; settings: 6 hours, 2-FDG vs. 2-DG
Protocol: ATP quantitation assay. The ATP lite kit (Perkin Elmer) can be used to quantify levels of ATP. About 50 μL of cell lysis solution were added to 100 μL of cell suspension in a white-bottom 96-well plate. The plate was incubated at room temperature on a shaker (700 rpm) for five minutes. 50 μL of substrate solution was then added to the wells and shaken (700 rpm) for another five minutes at room temperature. The plate was then dark adapted for ten minutes and measured for luminescence.
ATP quantification assay. The ATP lite kit (Perkin Elmer) can be used to quantify levels of ATP. About […] of cell lysis solution were added to […] of cell suspension in a white-bottom 96-well plate. The plate was incubated at room temperature on a shaker (700 rpm) for five minutes. About […] solution were then added to the wells and shaken (700 rpm) for another five minutes at room temperature. The plate was then dark adapted for ten minutes and measured for luminescence. To normalize the reduction of ATP production to growth inhibition which results due to treatment with 2-DG or 2-FDG, parallel experiments were run to measure the total protein concentration using a microBCA protein detection kit (Pierce, Rockford, Ill.).

SKBR3 cells [7] = assay: Cytotoxicity in SKBR3 cells under hypoxic conditions; assay type: cell-based, human; settings: 2-FDG vs. 2-DG
Protocol: as §1, with “Hypoxia. For studies in hypoxic conditions (Model C), cells were seeded and incubated for 24 hr at 37° C. and 5% CO2 as described below for direct cytotoxicity assays. After the 24 hr incubation, cells received drug treatment and were placed in a Pro-Ox in vitro chamber attached to a model 110 oxygen controller ([…] Bioinstruments Co. […] Cytotoxicity” for “Cytotoxicity”

With `NC(=O)C(=O)O` [oxamate, reference compound] the “cytotoxicity measured by trypan blue exclusion” value (shortened to “cytotoxicity measured”) (SKBR3 cells [1]) was “not toxic”.
With `C[C@H](O)[C@@H](O)[C@@H](O)[C@H](O)C=O` [fucose, reference compound] the “reversal of 2-DG toxicity by added sugar” value (SKBR3 cells [1]) was “had no effect” and the “reversal of 2-DG toxicity by added sugar” value (1420, pancreatic cancer) was “had no effect”.
In the case of `O=C[C@@H](F)[C@@H](O)[C@H](O)[C@H](O)CO` [2-FDM, 2-deoxy-2-fluoro-mannose], the “cytotoxicity measured” value (SKBR3 cells [1]) is reported as “toxic”, the “rank order in growth inhibiting and killing SKBR3 cells” value (SKBR3 cells [1]; normoxia) is reported as 2-DG>2-FDM>>>2-FDG and the “ConA binding of glycoproteins” value [2] is reported as “decrease ConA binding”. For the same compound, the “molecular weight of erbB2” value (erbB2) was “decreased the molecular weight of erbB2”, the “expression of chaperones Grp78 and Grp94” value (Grp78 and Grp94 [3]) was “both Grp78 and Grp94 are upregulated” and the “up-regulation of GRP 78 and 94, dose dependence” value (Grp78 and Grp94 [3]) was “up-regulated by 2-DG and 2-FM in a dose-dependent manner”. The “upregulation of the UPR (Grp78, Grp94)” value (Grp78 and Grp94 [4]; hypoxia model C) was “both chaperones are upregulated”, the “upregulation of the UPR (Grp78, Grp94)” value (Grp78 and Grp94 [4]; hypoxia models A and B) was “no significant upregulation of the UPR” and the “induction of GADD154/CHOP” value (CHOP/GADD154) was “induced”. For the same compound, the “toxicity in 2-DG sensitive and 2-DG resistant cell types” value (tumor cell lines; 4 mM) was “caused toxicity in 2-DG sensitive but not 2-DG resistant cell types”, the “tumor cell lines undergoing significant cell death” value (tumor cell lines) was 6 out of 15 and the “toxicity to select tumor cell types” value (tumor cell lines) was “toxic to select tumor cell types growing under normoxia”. For the same compound, the “order of potency to inhibit viral glycoprotein synthesis” value (fowl plague virus) was 2-DG>2-FDM>2-FDG.
For `O=C(CO)[C@@H](O)[C@H](O)[C@H](O)CO` [fructose, reference compound], the “reversal of 2-DG toxicity by added sugar” value (SKBR3 cells [1]) was “had no effect” and the “reversal of 2-DG toxicity by added sugar” value (1420, pancreatic cancer) was “had no effect”.
For `O=C[C@@H](Cl)[C@@H](O)[C@H](O)[C@H](O)CO` [2-CM, 2-deoxy-2-chloro-mannose], the “toxicity to select tumor cell types” value (tumor cell lines) was “toxic to select tumor cell types growing under normoxia”.
With `O=C[C@H](F)[C@@H](O)[C@H](O)[C@H](O)CO` [2-FDG, 2-deoxy-2-fluoro-glucose, reference compound] the “cytotoxicity measured” value (SKBR3 cells [1]) was “is not”, the “rank order in growth inhibiting and killing SKBR3 cells” value (SKBR3 cells [1]; normoxia) was 2-DG>2-FDM>>>2-FDG and the “toxicity to SKBR3 cells grown under normoxia (FIG. 1)” value (SKBR3 cells [1]; normoxia) was “neither of these agents caused toxicity”. The “inhibition of lactate levels (a measure of glycolysis)” value (SKBR3 cells [5]) was “inhibited lactate levels (a measure of glycolysis) better than the latter”, the ATP depletion (SKBR3 cells [6]) was “ATP depletion was more prominent” and the “toxicity under hypoxic conditions” value (SKBR3 cells [7]) was “more toxic than 2-DG”. The “ConA binding of glycoproteins” value [2] was “no reduction in ConA binding”, the “molecular weight of erbB2” value (erbB2) was “had no effect” and the “expression of chaperones Grp78 and Grp94” value (Grp78 and Grp94 [3]) was “does not increase the levels of these chaperones as much as 2-DG or 2-FDM”. The “up-regulation of GRP 78 and 94, dose dependence” value (Grp78 and Grp94 [3]) was “not”, the “induction of GADD154/CHOP” value (CHOP/GADD154) was “not” and the “tumor cell lines undergoing significant cell death” value (tumor cell lines) was “not”. For the same compound, the “toxicity to select tumor cell types” value (tumor cell lines) was “not”, the “toxicity to cell types that are sensitive to 2-DG” value (tumor cell lines; normoxic conditions) was “shows no toxicity” and the “order of potency to inhibit viral glycoprotein synthesis” value (fowl plague virus) was 2-DG>2-FDM>2-FDG.
For tunicamycin [reference compound], the “ConA binding of glycoproteins” value [2] was “decrease ConA binding”, the “expression of chaperones Grp78 and Grp94” value (Grp78 and Grp94 [3]) was “both Grp78 and Grp94 are upregulated” and the “synthesis of chaperones Grp78 and Grp94” value (Grp78 and Grp94 [4]; all three hypoxia models (positive control)) was “induce the synthesis of these chaperones in all three models”. For the same compound, the “induction of GADD154/CHOP” value (CHOP/GADD154) was “induced”.
